Measured values from patent US7897369B2, “Isoprenoid wax ester synthases, isoprenoid acyl CoA-synthetases, and uses thereof” (Regents of the University of Minnesota, priority 2007, dated 2011).

Columns and labels:
Assay type in all cases: biochemical, Marinobacter hydrocarbonoclasticus DSM 8798
WS3 = experiment: Coupled enzyme assay, WS substrate profile (TLC); details: coupled reaction; palmitic acid with hexadecanol, phytanic acid with phytol
Experimental: (§1) Stock solutions of various substrates were prepared in 50 mM Tris-HCl buffer (pH 8) containing 1% gum arabic, 12.5 μg bovine serum albumin ml^−1, 0.1% taurocholate, and either 100 mM fatty acid, isoprenoid acid, fatty alcohol, or isoprenoid alcohol. Stock solutions were sonicated to disperse the substrates. Substrate profiles of the three WS were tested using coupled enzyme in vitro reactions in which the CoA synthetases Acs1 and Acs2 are added to synthesize the CoA-activated fatty acid phytanic acid substrates from corresponding acid precursors for the WS reactions. Assays were carried out in 500-μl reactions containing in 50 mM Tris-HCl buffer (pH 8.0), 12.5 μl of each acid, and alcohol substrate stock solution (final concentrations of each substrate of 250 μM), 10 mM MgCl2, 10 mM CoASH, 10 mM ATP, 5 mM TCEP, 0.1 U of inorganic pyrophosphatase, 0.25 μg of Acs1 and Acs2 CoA synthetase, and 0.5 μg of WS to be tested. Assays were incubated at 37° C. overnight before thin-layer chromatography (TLC) analysis of the reaction products.
In vitro WS assay samples were extracted with 500 μl of chloroformmethanol (1:1 [vol/vol]), and extracts were analyzed by TLC with Whatman normal phase silica gel 60 plates and developed using hexane-diethyl ether-acetic acid (90:10:1 [vol/vol/vol]). […]

WS2 = WS2 (Marinobacter nauticus, UniProt A3RE51); experiment: Coupled enzyme assay, WS substrate profile (TLC); parameters: key to WE formation (spot intensity of wax ester products on TLC), WS2, C16 / WE formation (spot intensity of wax ester products on TLC), WS2, Phytol / WE formation (spot intensity of wax ester products on TLC), WS2, Farnesol / WE formation (spot intensity of wax ester products on TLC), WS2, C10 / WE formation (spot intensity of wax ester products on TLC), WS2, C12 / WE formation (spot intensity of wax ester products on TLC), WS2, C14: no activity (−); ranging from no activity (−) to most active (+++); ranging from no activity (−) to most active (+++); most active (+++)
Sequence of WS2 (A3RE51 entry or part of it): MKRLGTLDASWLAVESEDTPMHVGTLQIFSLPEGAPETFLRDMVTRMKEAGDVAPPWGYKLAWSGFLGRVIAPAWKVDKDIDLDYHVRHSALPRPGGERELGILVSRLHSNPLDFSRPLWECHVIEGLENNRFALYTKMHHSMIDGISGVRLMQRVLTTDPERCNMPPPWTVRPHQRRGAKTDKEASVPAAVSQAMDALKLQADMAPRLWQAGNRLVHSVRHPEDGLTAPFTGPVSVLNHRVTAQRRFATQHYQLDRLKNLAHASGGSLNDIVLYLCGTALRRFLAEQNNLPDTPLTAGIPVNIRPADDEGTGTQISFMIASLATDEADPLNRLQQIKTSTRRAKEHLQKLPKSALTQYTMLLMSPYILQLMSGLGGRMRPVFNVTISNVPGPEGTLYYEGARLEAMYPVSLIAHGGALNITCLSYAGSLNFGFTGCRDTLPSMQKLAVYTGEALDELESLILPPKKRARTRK
Experimental: as §1
(§2) In vitro WS assay samples were extracted with 500 μl of chloroformmethanol (1:1 [vol/vol]), and extracts were analyzed by TLC with Whatman normal phase silica gel 60 plates and developed using hexane-diethyl ether-acetic acid (90:10:1 [vol/vol/vol]). TLC plates were stained with either iodine vapor or anisaldehyde solution as described earlier (Jork et al., 1990. Thin-layer chromatography reagents and detection methods, vol. 1a. Physical and chemical detection methods: fundamentals, reagents. VHC, Weinheim, Germany). Palmitoyl palmitate and triolein were used as WE and TAG reference compounds, respectively.

WS1 = experiment: Coupled enzyme assay, WS substrate profile (TLC); parameters: key to WE formation (spot intensity of wax ester products on TLC), WS1, C10 / WE formation (spot intensity of wax ester products on TLC), WS1, C12 / WE formation (spot intensity of wax ester products on TLC), WS1, C14 / WE formation (spot intensity of wax ester products on TLC), WS1, C16 / WE formation (spot intensity of wax ester products on TLC), WS1, Phytol / WE formation (spot intensity of wax ester products on TLC), WS1, Farnesol: no activity (−); ranging from no activity (−) to most active (+++); ranging from no activity (−) to most active (+++); most active (+++)
Experimental: as §1, §2

Acs4 = experiment: CoA synthetase assay (HPLC, LC-MS); details: 10 mM acid, 20 min at 37° C.
Experimental: (§3) In vitro reactions were performed as described previously (Trivedi et al., 2004, Nature, 428:441-445) with some modifications. CoA synthetase assays were carried out in 250-μl reaction volumes containing 50 mM Tris-HCl buffer (pH 7.5), 0.1% Triton X-100, 10 mM MgCl2, 5 mM TCEP, 0.1 U of inorganic pyrophosphatase, and as substrates 10 mM phytanic or fatty acids, 10 mM reduced coenzyme A (CoASH), 10 mM ATP, and 0.5 μg of purified Acs (either 1, 2, 3, or 4) protein. The reactions were incubated for 20 min at 37° C. and stopped with 25 μl of 5% acetic acid, followed by HPLC analysis of the reaction products.
(§4) CoA-synthetase assay samples (25 μl) were resolved on an Agilent 1100 HPLC (Agilent Technologies, Palo Alto, Calif.) equipped with a photodiode array detector set to 259 nm. Samples were separated on a reversed-phase Eclipse XDB-C8 column (Agilent Technologies) at a flow rate of 1 ml min^−1. Solvent A consisted of 20 mM ammonium acetate (pH 5.4) in HPLC-grade water, and solvent B contained acetonitrile and methanol (85:15 [vol/vol]). Acyl-CoA and phytanoyl-CoA products were eluted using the following conditions: solvent A-solvent B at 65:35 from 0 to 5 min, followed by a gradient from solvent A-solvent B at 65:35 to 100% solvent B in 30 min. Liquid chromatography-mass spectrometry (LC-MS) analyses of reaction products were done with an LCQ mass spectrophotometer equipped with an electrospray ionization source (ESI) (Thermo Finnigan). Mass fragmentation spectra were monitored in a mass range of m/z 400 to 1,500 with a negative ESI interface.

Acs3 = experiment: CoA synthetase assay (HPLC, LC-MS); details: 10 mM acid, 20 min at 37° C.
Experimental: as §3, §4

Acs2 = experiment: CoA synthetase assay (HPLC, LC-MS); details: 10 mM acid, 20 min at 37° C.
Experimental: as §3, §4

[1] = alcohol farnesol, 12 h at 37° C., each substrate 250 μM
[2] = alcohol phytol, 12 h at 37° C., each substrate 250 μM
[3] = coupled reaction, palmitic acid with hexadecanol, phytanic acid with phytol, phytanoyl-CoA with the alcohols named in the value
[4] = fatty alcohol C10, 12 h at 37° C., each substrate 250 μM
[5] = fatty alcohol C12, 12 h at 37° C., each substrate 250 μM
[6] = fatty alcohol C14, 12 h at 37° C., each substrate 250 μM
[7] = fatty alcohol C16, 12 h at 37° C., each substrate 250 μM

CCCCCCCCCCCCCCCC(=O)O [C16, palmitic acid]
WE product formation by WS3 (TLC), in words (WS3): no products were observed | WE formation (spot intensity of wax ester products on TLC), WS2, Farnesol (WS2; [1]): ++ | WE formation (spot intensity of wax ester products on TLC), WS2, Phytol (WS2; [2]): + | WE product formation by WS2 (TLC), in words (WS2; [3]): Products were observed | WE formation (spot intensity of wax ester products on TLC), WS2, C10 (WS2; [4]): + | WE formation (spot intensity of wax ester products on TLC), WS2, C12 (WS2; [5]): + | WE formation (spot intensity of wax ester products on TLC), WS2, C14 (WS2; [6]): ++ | WE formation (spot intensity of wax ester products on TLC), WS2, C16 (WS2; [7]): +++ | WE formation (spot intensity of wax ester products on TLC), WS1, Farnesol (WS1; [1]): ++ | WE formation (spot intensity of wax ester products on TLC), WS1, Phytol (WS1; [2]): + | WE product formation by WS1 (TLC), in words (WS1; [3]): Products were observed | WE formation (spot intensity of wax ester products on TLC), WS1, C10 (WS1; [4]): + | WE formation (spot intensity of wax ester products on TLC), WS1, C12 (WS1; [5]): ++ | WE formation (spot intensity of wax ester products on TLC), WS1, C14 (WS1; [6]): + | WE formation (spot intensity of wax ester products on TLC), WS1, C16 (WS1; [7]): +++ | CoA activation by Acs4 (Acs4): most activity | CoA activation by Acs3 (Acs3): most activity | CoA activation by Acs2 (Acs2): most activity
